Source: ChEMBL document CHEMBL4376805, “Plasmodium Purine Metabolism and Its Inhibition by Nucleoside and Nucleotide Analogues” (J Med Chem, 2019)

Key:
[1] = Inhibition of Plasmodium falciparum HGXPRT expressed in Escherichia coli BL21 (DE3) assessed as inhibitor constant for enzyme-inhibitor-substrate complex formation using [5'-14C]IMP as substrate by scintillation counting method
[2] = target: T1, Hypoxanthine-guanine phosphoribosyltransferase (Homo sapiens, UniProt P00492)
T1 sequence (P00492 whole entry): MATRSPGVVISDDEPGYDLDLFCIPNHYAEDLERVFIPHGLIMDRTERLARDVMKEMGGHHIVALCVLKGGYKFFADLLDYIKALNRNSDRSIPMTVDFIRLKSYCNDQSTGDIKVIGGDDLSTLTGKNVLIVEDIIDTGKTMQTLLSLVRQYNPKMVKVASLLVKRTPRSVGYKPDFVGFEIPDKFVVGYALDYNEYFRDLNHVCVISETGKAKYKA
Description: Inhibition of human HGPRT using Prib-PP as substrate by Hanes-plot based method

[3] = Inhibition of Plasmodium falciparum HGXPRT using Prib-PP as substrate by Hanes-plot based method
[4] = Inhibition of Plasmodium vivax HGPRT using Prib-PP as substrate by Hanes-plot based method
[5] = tested on: Plasmodium falciparum; experiment: Antimalarial activity against Plasmodium falciparum D6 assessed as reduction in parasite growth preincubated for 48 hrs followed by addition of [3H]Hypoxanthine and measured after 48 hrs by [3H]Hypoxanthine incorporation assay; assay type: functional, organism-based
[6] = tested on: Plasmodium falciparum; experiment: Antimalarial activity against chloroquine/ pyrimethamine-resitant Plasmodium falciparum W2 assessed as reduction in parasite growth preincubated for 48 hrs followed by addition of [3H]Hypoxanthine and measured after 48 hrs by [3H]Hypoxanthine incorporation assay; assay type: functional, organism-based
[7] = tested on: Plasmodium falciparum; experiment: Antimalarial activity against synchronized Plasmodium falciparum K1 ring form infected in human erythrocytes assessed as reduction in parasite growth after 72 hrs by Hoechst 33258 staining based fluorescence assay; assay type: functional, organism-based; details: K1, 72 h
[8] = tested on: Plasmodium falciparum; experiment: Antimalarial activity against Plasmodium falciparum FCQ-27 isolate infected in erythrocytes assessed as reduction in [G-3H]Hypoxanthine incorporation incubated for 24 hrs followed by addition of [G-3H]Hypoxanthine and measured after 18 to 20 hrs by scintillation counting method; assay type: functional
[9] = tested on: Plasmodium falciparum; experiment: Antimalarial activity against synchronized Plasmodium falciparum ring stage form assessed as reduction in [2,8-3H]Hypoxanthine incorporation incubated for 48 hrs followed by addition of [2,8-3H]Hypoxanthine and measured after 24 hrs by liquid scintillation counting method; assay type: functional, organism-based
[10] = tested on: Plasmodium falciparum; experiment: Antimalarial activity against multi drug-resistant Plasmodium falciparum K1 assessed as reduction in parasite growth [3H]Hypoxanthine incorporation assay; assay type: functional; details: read-out: ID50 (the source's name)
[11] = target: T2, Purine nucleoside phosphorylase (Homo sapiens, UniProt P00491)
T2 sequence (P00491 whole entry): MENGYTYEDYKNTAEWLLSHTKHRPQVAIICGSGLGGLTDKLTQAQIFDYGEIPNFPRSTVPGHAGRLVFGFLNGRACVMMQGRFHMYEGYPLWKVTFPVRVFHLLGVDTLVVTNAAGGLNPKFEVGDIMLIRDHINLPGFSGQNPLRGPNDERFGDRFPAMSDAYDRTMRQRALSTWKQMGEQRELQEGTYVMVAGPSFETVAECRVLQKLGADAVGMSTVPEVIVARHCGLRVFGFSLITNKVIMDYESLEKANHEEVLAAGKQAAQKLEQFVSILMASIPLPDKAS
Description: Inhibition of human PNP assessed as inhibitor constant for enzyme-inhibitor-substrate complex formation

[12] = target: T3, Purine nucleoside phosphorylase (Plasmodium falciparum, UniProt Q8T9Z7)
T3 sequence (Q8T9Z7 whole entry): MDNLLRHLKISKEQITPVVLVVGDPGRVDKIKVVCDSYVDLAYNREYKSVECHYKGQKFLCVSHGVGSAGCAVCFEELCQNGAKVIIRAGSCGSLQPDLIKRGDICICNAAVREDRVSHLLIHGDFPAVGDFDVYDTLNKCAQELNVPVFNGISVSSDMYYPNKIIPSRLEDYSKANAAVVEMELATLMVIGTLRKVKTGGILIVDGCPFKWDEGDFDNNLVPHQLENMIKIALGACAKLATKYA
Description: Inhibition of Plasmodium falciparum His-tagged PNP assessed as inhibitor constant for enzyme-inhibitor-substrate complex formation

[13] = Inhibition of Plasmodium falciparum N-terminal His6-tagged HGXPRT using Prib-PP as substrate by Hanes-plot based method
[14] = target: T1, Hypoxanthine-guanine phosphoribosyltransferase; experiment: Inhibition of human N-terminal His6-tagged HGPRT using Prib-PP as substrate by Hanes-plot based method
[15] = tested on: Plasmodium falciparum; experiment: microbe, parasite or virus in culture; details: 3D7
Description: Antimalarial activity against Plasmodium falciparum 3D7 infected in human erythrocytes assessed as reduction in [3H]ethanolamine incorporation incubated for 18 hrs followed by addition of [3H]ethanolamine and measured after 48 hrs by scintillation counting method

[16] = tested on: Plasmodium falciparum; experiment: Antimalarial activity against Plasmodium falciparum; assay type: functional; details: read-out: ID50 (the source's name)
[17] = target: T4, Adenosine deaminase (Plasmodium falciparum, UniProt Q86GS5); experiment: Inhibition of Plasmodium falciparum N-terminal thrombin cleavable His6-tagged ADA expressed in Escherichia coli BL21 assessed as equilibrium dissociation constant by measuring reduction in formation of inosine using adenosine as substrate
T4 sequence (Q86GS5 whole entry): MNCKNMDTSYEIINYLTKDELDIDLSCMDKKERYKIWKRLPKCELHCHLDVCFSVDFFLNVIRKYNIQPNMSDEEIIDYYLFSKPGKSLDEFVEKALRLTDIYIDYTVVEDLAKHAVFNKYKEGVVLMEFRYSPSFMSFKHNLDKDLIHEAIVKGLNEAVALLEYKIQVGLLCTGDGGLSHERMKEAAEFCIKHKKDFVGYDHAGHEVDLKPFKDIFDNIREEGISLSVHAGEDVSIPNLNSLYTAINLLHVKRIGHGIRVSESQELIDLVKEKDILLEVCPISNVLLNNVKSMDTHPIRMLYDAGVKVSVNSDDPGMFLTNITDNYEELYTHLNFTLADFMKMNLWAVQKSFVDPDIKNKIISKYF

[18] = target: T4, Adenosine deaminase; experiment: Inhibition of Plasmodium falciparum N-terminal thrombin cleavable His6-tagged ADA expressed in Escherichia coli BL21 assessed as reduction in formation of inosine using adenosine as substrate
[19] = target: T4, Adenosine deaminase; experiment: Inhibition of Plasmodium falciparum ADA assessed as reduction in formation of ammonia using adenosine as substrate incubated for 15 mins by spectrophotometric analysis
[20] = target: T2, Purine nucleoside phosphorylase; experiment: Inhibition of human PNP expressed in Escherichia coli assessed as reduction in uric acid formation by spectrophotometric method
[21] = target: T2, Purine nucleoside phosphorylase; remark: listed apart in the source
Description: Inhibition of human PNP assessed as inhibitor constant for enzyme-inhibitor complex formation

[22] = target: T3, Purine nucleoside phosphorylase; remark: listed apart in the source
Description: Inhibition of Plasmodium falciparum His-tagged PNP assessed as inhibitor constant for enzyme-inhibitor complex formation

[23] = substrate: O=c1[nH]cnc2c1ncn2[C@@H]1O[C@H](CO)[C@@H](O)[C@H]1O; experiment: Binding affinity to Plasmodium falciparum His-tagged PNP assessed as catalytic rate by measuring uric acid formation
[24] = substrate: O=c1[nH]cnc2c1ncn2[C@@H]1O[C@H](CO)[C@@H](O)[C@H]1O; experiment: Binding affinity to human PNP assessed as catalytic rate by measuring uric acid formation

## O=c1[nH]cnc2c([C@@H]3N[C@H](COP(=O)(O)O)[C@@H](O)[C@H]3O)c[nH]c12
[1]
  Ki: 0.001 µM

## Nc1nc2c(ncn2C[C@H](CO)n2cc(P(=O)(O)O)nn2)c(=O)[nH]1
[2]
  Ki: 0.1 µM
[3]
  Ki: 1 to 6 µM
[4]
  Ki: 1 to 6 µM

## CCOC(=O)[C@H](Cc1ccccc1)NP(N)(=O)CCO[C@H](CO)Cn1cnc2c(=O)[nH]c(N)nc21 (stereo partly drawn)
[5]
  IC50: > 250 µM
[6]
  IC50: > 250 µM

## Nc1nccc2c1ncn2C[C@H](CO)OCP(=O)(O)O
[7]
  IC50: 100 µM

## Nc1nc(Cl)nc2c1ncn2[C@@H]1O[C@H](CO)[C@@H](O)[C@H]1O
[8]
  IC37: 11 µM

## Nc1ncnc2c1c(I)cn2[C@@H]1O[C@H](CO)[C@@H](O)[C@H]1O [IODOTUBERCIDIN]
[9]
  IC50: 2 µM

## O=[N+]([O-])c1ccc(CSc2ncnc3c2ncn3[C@@H]2O[C@H](CO)[C@@H](O)[C@H]2O)cc1 [NITROBENZYLMERCAPTOPURINE RIBONUCLEOSIDE]
[10]
  IC50: 4.2 µM

## Nc1nc2c([C@@H]3N[C@H](CO)[C@@H](O)[C@H]3O)c[nH]c2c(=O)[nH]1
[11]
  Ki: 0.029 µM
[12]
  Ki: 0.0009 µM

## Nc1nc(N)c2ncn(C[C@H](CO)OCP(=O)(O)O)c2n1
[7]
  IC50: 15 µM

## Nc1nc2c(ncn2[C@@H]2CN(C(=O)CCP(=O)(O)O)C[C@H]2OC[C@@H](O)P(=O)(O)O)c(=O)[nH]1
[3]
  Ki: 0.007 µM
[4]
  Ki: 0.008 µM

## CCOC(=O)[C@H](Cc1ccccc1)NP(N)(=O)CCO[C@H](CO)Cn1cnc2c(=O)[nH]cnc21 (stereo partly drawn)
[5]
  IC50: > 250 µM
[6]
  IC50: > 250 µM

## CNc1ncnc2c1ncn2[C@H]1C[C@H](O)[C@@H](CO)O1
[8]
  IC37: 10 µM

## COC(=O)[C@H](Cn1cnc2c(=O)[nH]cnc21)OCCP(=O)(O)O
[13]
  Ki: 1 µM
[14]
  Ki: 6 µM

## Nc1ncnc2c1ncn2C[C@H](CO)OCP(=O)(O)O
[7]
  IC50: 6 µM

## Nc1nc2c(nc(Br)n2C[C@@H](CO)OCCP(=O)(O)O)c(=O)[nH]1
[13]
  Ki: > 30 µM
[14]
  Ki: 13 µM

## Nc1nccc2c1ncn2C[C@@H](CO)OCP(=O)(O)O
[7]
  IC50: 0.29 µM

## Nc1ncnc2c1ncn2CCOCP(=O)(O)O [ADEFOVIR]
[7]
  IC50: > 250 µM

## Nc1nc2c(ncn2[C@H]2CCN(C(=O)CP(=O)(O)O)C2)c(=O)[nH]1
[2]
  Ki: 73000 µM
[3]
  Ki: 400 µM
[4]
  Ki: 2600 µM

## O=c1[nH]cnc2c([C@@H]3N[C@H](CO)[C@@H](O)[C@H]3O)c[nH]c12 [FORODESINE]
[15]
  IC50: 0.063 µM

## Nc1ncnc2c1ncn2[C@H]1O[C@@H](CO)[C@H](OP(=O)(O)OC[C@H]2O[C@@H](n3cc(F)c(=O)[nH]c3=O)C[C@@H]2O)[C@@H]1O
[16]
  IC50: 4 µM

## CCOC(=O)[C@H](Cc1ccccc1)NP(=O)(CCO[C@H](CO)Cn1cnc2c(=O)[nH]c(N)nc21)N[C@@H](Cc1ccccc1)C(=O)OCC
[5]
  IC50: 22 to 70 µM
[6]
  IC50: 22 to 70 µM

## Nc1nc(N)c2ncn(C[C@@H](CO)OCP(=O)(O)O)c2n1
[7]
  IC50: 2.1 µM

## OC[C@H]1O[C@@H](n2cnc3c2N=CNC[C@H]3O)[C@H](O)[C@@H]1O [COFORMYCIN]
[17]
  Ki: 0.08 nM
[18]
  Ki: 0.00068 µM
[19]
  Ki: 0.25 nM

## NC(=O)c1cn([C@@H]2O[C@H](CO)[C@@H](O)[C@H]2O)c2ncnc(N)c12 [SANGIVAMYCIN]
[16]
  IC50: 25 µM
[8]
  IC37: 0.3 µM

## Nc1ncnc2c1ccn2[C@@H]1O[C@H](CO)[C@@H](O)[C@H]1O [TUBERCIDIN]
[8]
  IC37: 0.7 µM

## Nc1ncnc2c1ncn2[C@@H]1C[C@@H](OP(=O)(O)OC[C@H]2O[C@@H](n3cc(F)c(=O)[nH]c3=O)C[C@@H]2O)[C@H](CO)O1
[16]
  IC50: 5 µM

## Nc1nc(SCc2ccc([N+](=O)[O-])cc2)c2ncn([C@@H]3O[C@H](CO)[C@@H](O)[C@H]3O)c2n1
[10]
  IC50: 4.5 µM

## CCOC(=O)[C@H](Cc1ccccc1)NP(=O)(CCO[C@@H](Cn1cnc2c(=O)[nH]cnc21)C(=O)OC)N[C@@H](Cc1ccccc1)C(=O)OCC
[5]
  IC50: 50 µM
[6]
  IC50: 50 µM

## CSC[C@H]1N[C@@H](c2c[nH]c3c(=O)[nH]cnc23)[C@H](O)[C@@H]1O
[20]
  Ki: 0.303 µM
[15]
  IC50: 0.05 µM

## Nc1nc2c(ncn2C[C@@H](CO)n2cc(P(=O)(O)O)nn2)c(=O)[nH]1
[2]
  Ki: 0.4 µM
[3]
  Ki: 2 µM
[4]
  Ki: 2 µM

## CC(C)(C)C(=O)OCOP(=O)(COCCn1cnc2c(N)ncnc21)OCOC(=O)C(C)(C)C [ADEFOVIR DIPIVOXIL]
[7]
  IC50: 37.3 µM

## O=c1[nH]cnc2c(CN3C[C@@H](CO)[C@H](O)C3)c[nH]c12
[11]
  Ki: 0.08 µM
[12]
  Ki: 0.00068 µM
[21]
  Ki: 1.7 µM
[22]
  Ki: 0.0015 µM

## Nc1ncnc2c1ncn2C[C@@H](CO)OCP(=O)(O)O
[7]
  IC50: 0.18 µM

## O=c1[nH]c(=O)c2ncn(C[C@H](CO)n3cc(P(=O)(O)O)nn3)c2[nH]1
[2]
  Ki: > 500 µM
[3]
  Ki: 2 µM

## O=c1[nH]cnc2c1ncn2C[C@H](CO)n1cc(P(=O)(O)O)nn1
[2]
  Ki: 8 µM
[3]
  Ki: 3 µM
[4]
  Ki: > 100 µM

## Nc1nc2c(ncn2C[C@@H](CO)OCCP(=O)(O)O)c(=O)[nH]1
[13]
  Ki: 0.1 µM
[14]
  Ki: 0.6 µM

## O=C(CCP(=O)(O)O)N1C[C@@H](n2cnc3c(O)ncnc32)[C@H](OC[C@@H](O)P(=O)(O)O)C1
[3]
  Ki: 0.002 µM
[4]
  Ki: 0.006 µM

## OC[C@H]1O[C@@H](n2cnc3c2NC=NC[C@@H]3O)[C@H](O)[C@@H]1O
[19]
  Ki: 0.007 nM

## CCOC(=O)[C@H](Cc1ccccc1)NP(=O)(CCO[C@@H](Cn1cnc2c(=O)[nH]c(N)nc21)C(=O)OC)N[C@@H](Cc1ccccc1)C(=O)OCC
[5]
  IC50: 50 µM
[6]
  IC50: 50 µM

B1: Purine nucleoside phosphorylase (Plasmodium falciparum), Q8T9Z7 (protein)
chain: T3 sequence (Q8T9Z7 whole entry)
[23]
  kcat: 0.34 s⁻¹

B2: Purine nucleoside phosphorylase (Homo sapiens), P00491 (protein)
chain: T2 sequence (P00491 whole entry)
[24]
  kcat: 56 s⁻¹
